Counter-ions that a name gives are not always drawn.
Biological target: interaction between p53 and MDM2 proteins (recombinant GST-tagged MDM2 / biotinylated p53 peptide) (Homo sapiens, UniProt Q00987)
Assay: HTRF (homogeneous time-resolved fluorescence) assay of p53-MDM2 interaction inhibition
Type: binding
Settings: bsa: 0.02%
Protocol: The ability of the compounds to inhibit the interaction between p53 and MDM2 proteins was measured by an HTRF (homogeneous time-resolved fluorescence) assay in which recombinant GST-tagged MDM2 binds to a peptide that resembles the MDM2-interacting region of p53. Binding of GST-MDM2 protein and p53-peptide (biotinylated on its N-terminal end) is registered by the FRET (fluorescence resonance energy transfer) between Europium (Eu)-labeled anti-GST antibody and streptavidin-conjugated Allophycocyanin (APC).
[…] Add 10 uL diluted compounds (1:5 dilution in reaction buffer) to each well, mix by shaking Add 20 uL biotinylated p53 peptide (180 nM working solution) in reaction buffer to each well and mix on shaker. Incubate at 37° C. for 1 h. Add 20 uL streptavidin-APC and Eu-anti-GST antibody mixture (6 nM Eu-anti-GST and 60 nM streptavidin-APC working solution) in TBS buffer with 0.2% BSA, shake at room temperature for 30 minutes and read using a TRF-capable plate reader at 665 and 615 nm (Victor 5; Perkin Elmer Wallac). If not specified, the reagents were purchased from Sigma Chemical Co.

Sequence of interaction between p53 and MDM2 proteins (recombinant GST-tagged MDM2 / biotinylated p53 peptide) (Q00987 whole entry): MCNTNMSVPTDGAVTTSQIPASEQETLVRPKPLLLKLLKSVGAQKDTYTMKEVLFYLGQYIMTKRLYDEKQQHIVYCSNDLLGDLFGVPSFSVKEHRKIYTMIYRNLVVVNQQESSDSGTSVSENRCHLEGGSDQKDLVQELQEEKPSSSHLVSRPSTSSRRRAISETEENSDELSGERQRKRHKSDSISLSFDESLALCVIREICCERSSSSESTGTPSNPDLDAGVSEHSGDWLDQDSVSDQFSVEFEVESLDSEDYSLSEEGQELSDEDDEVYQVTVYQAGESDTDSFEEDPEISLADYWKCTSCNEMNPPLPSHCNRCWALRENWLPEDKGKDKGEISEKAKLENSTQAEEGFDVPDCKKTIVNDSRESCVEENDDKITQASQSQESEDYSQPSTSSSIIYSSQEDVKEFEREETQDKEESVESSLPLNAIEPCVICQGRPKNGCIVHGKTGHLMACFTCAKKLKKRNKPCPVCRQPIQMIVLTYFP

Compound	IC50 [nM]
Cc1ccc(CCCN2[C@@H](CC(C)(C)C)[C@](C#N)(c3ccc(Cl)cc3F)[C@@H](c3cccc(Cl)c3F)[C@@H]2CO)o1 [Example 13, (2S,3R,4S,5R)-4-(3-chloro-2-fluoro-phenyl)-3-(4-chloro-2-fluoro-phenyl)-2-(2,2-dimethyl-propyl)-5-hydroxymethyl-1-[3-(5-methyl-furan-2-yl)-propyl]-pyrrolidine-3-carbonitrile trifluoroacetate salt]	1670
(1S,2S)-2-[(2S,3R,4S,5R)-4-(3-chloro-2-fluoro-phenyl)-3-(4-chloro-2-fluoro-phenyl)-3-cyano-2-(2,2-dimethyl-propyl)-5-hydroxymethyl-pyrrolidin-1-ylmethyl]-cyclopropanecarboxylic acid [Example 10b]	242
CC(C)(C)C[C@@H]1N(C[C@@H]2C[C@H]2C(=O)O)[C@@H](CO)[C@H](c2cccc(Cl)c2F)[C@@]1(C#N)c1ccc(Cl)cc1F [Example 10a, (1R,2R)-2-[(2S,3R,4S,5R)-4-(3-chloro-2-fluoro-phenyl)-3-(4-chloro-2-fluoro-phenyl)-3-cyano-2-(2,2-dimethyl-propyl)-5-hydroxymethyl-pyrrolidin-1-ylmethyl]-cyclopropanecarboxylic acid]	87
CC(C)(C)C[C@@H]1N(CCCc2cn(C(c3ccccc3)(c3ccccc3)c3ccccc3)cn2)[C@@H](CO)[C@H](c2cccc(Cl)c2F)[C@@]1(C#N)c1ccc(Cl)cc1F [Example 17, (2S,3R,4S,5R)-4-(3-chloro-2-fluoro-phenyl)-3-(4-chloro-2-fluoro-phenyl)-2-(2,2-dimethyl-propyl)-5-hydroxymethyl-1-[3-(1-trityl-1H-imidazol-4-yl)-propyl]-pyrrolidine-3-carbonitrile]	215
CC(C)(C)C[C@@H]1N(CCCC2CCOCC2)[C@@H](CO)[C@H](c2cccc(Cl)c2F)[C@@]1(C#N)c1ccc(Cl)cc1F [Example 16, (2S,3R,4S,5R)-4-(3-chloro-2-fluoro-phenyl)-3-(4-chloro-2-fluoro-phenyl)-2-(2,2-dimethyl-propyl)-5-hydroxymethyl-1-[3-(tetrahydro-pyran-4-yl)-propyl]-pyrrolidine-3-carbonitrile]	489
CC(C)(C)C[C@@H]1N[C@@H](CO)[C@H](c2cccc(Cl)c2)[C@@]1(C#N)c1ccc(Cl)cc1 (racemic) [Example 1, rac(2S,3R,4R,5R)-4-(3-chloro-phenyl)-3-(4-chloro-phenyl)-2-(2,2-dimethyl-propyl)-5-hydroxymethyl-pyrrolidine-3-carbonitrile]	2860
CC(C)(C)C[C@@H]1N(CC[C@@H](O)[C@H](O)[C@H](O)CO)[C@@H](CO)[C@H](c2cccc(Cl)c2F)[C@@]1(C#N)c1ccc(Cl)cc1F (racemic) [Example 4, rac(2S,3R,4S,5R)-4-(3-chloro-2-fluoro-phenyl)-3-(4-chloro-2-fluoro-phenyl)-2-(2,2-dimethyl-propyl)-5-hydroxymethyl-1-((3R,4S,5R)-3,4,5,6-tetrahydroxy-hexyl)-pyrrolidine-3-carbonitrile]	164
CC(C)(C)C[C@@H]1N(CC[C@@H](O)[C@H](O)[C@H](O)CO)[C@@H](CO)[C@H](c2cccc(Cl)c2)[C@@]1(C#N)c1ccc(Cl)cc1 (racemic) [Example 2, rac(2S,3R,4R,5R)-4-(3-chloro-phenyl)-3-(4-chloro-phenyl)-2-(2,2-dimethyl-propyl)-5-hydroxymethyl-1-((3R,4S,5R)-3,4,5,6-tetrahydroxy-hexyl)-pyrrolidine-3-carbonitrile]	740
CC(C)(C)C[C@@H]1N(CC#C[Si](C)(C)C)[C@@H](CO)[C@H](c2cccc(Cl)c2F)[C@@]1(C#N)c1ccc(Cl)cc1F [Example 11, (2S,3R,4S,5R)-4-(3-Chloro-2-fluoro-phenyl)-3-(4-chloro-2-fluoro-phenyl)-2-(2,2-dimethyl-propyl)-5-hydroxymethyl-1-(3-trimethylsilanyl-prop-2-ynyl)-pyrrolidine-3-carbonitrile]	1080
CC(C)(C)C[C@@H]1N(CCCc2ccc(C(N)=O)cc2)[C@@H](CO)[C@H](c2cccc(Cl)c2F)[C@@]1(C#N)c1ccc(Cl)cc1F [Example 12, 4-{3-[(2S,3R,4S,5R)-4-(3-chloro-2-fluoro-phenyl)-3-(4-chloro-2-fluoro-phenyl)-3-cyano-2-(2,2-dimethyl-propyl)-5-hydroxymethyl-pyrrolidin-1-yl]-propyl}-benzamide trifluoroacetate salt]	1520
COC(=O)c1ccc(C#CCN2[C@@H](CC(C)(C)C)[C@](C#N)(c3ccc(Cl)cc3F)[C@@H](c3cccc(Cl)c3F)[C@@H]2CO)cc1F [Example 15, 4-{3-[(2S,3R,4S,5R)-4-(3-chloro-2-fluoro-phenyl)-3-(4-chloro-2-fluoro-phenyl)-3-cyano-2-(2,2-dimethyl-propyl)-5-hydroxymethyl-pyrrolidin-1-yl]-prop-1-ynyl}-2-fluoro-benzoic acid methyl ester]	887
CCOC(=O)C1CC1CN1[C@@H](CC(C)(C)C)[C@](C#N)(c2ccc(Cl)cc2F)[C@@H](c2cccc(Cl)c2F)[C@@H]1CO (stereo partly drawn) [Example 8, 2-[(2S,3R,4S,5R)-4-(3-chloro-2-fluoro-phenyl)-3-(4-chloro-2-fluoro-phenyl)-3-cyano-2-(2,2-dimethyl-propyl)-5-hydroxymethyl-pyrrolidin-1-ylmethyl]-cyclopropanecarboxylic acid ethyl ester]	2320
CCOC(=O)c1ccc(CCCN2[C@@H](CC(C)(C)C)[C@](C#N)(c3ccc(Cl)cc3F)[C@@H](c3cccc(Cl)c3F)[C@@H]2CO)cc1 [Example 6, 4-{3-[(2S,3R,4S,5R)-4-(3-chloro-2-fluoro-phenyl)-3-(4-chloro-2-fluoro-phenyl)-3-cyano-2-(2,2-dimethyl-propyl)-5-hydroxymethyl-pyrrolidin-1-yl]-propyl}-benzoic acid ethyl ester]	4130
CC(C)(C)C[C@@H]1N(CCCc2ccc(C(=O)O)cc2)[C@@H](CO)[C@H](c2cccc(Cl)c2F)[C@@]1(C#N)c1ccc(Cl)cc1F [Example 5, 4-{3-[(2S,3R,4S,5R)-4-(3-chloro-2-fluoro-phenyl)-3-(4-chloro-2-fluoro-phenyl)-3-cyano-2-(2,2-dimethyl-propyl)-5-hydroxymethyl-pyrrolidin-1-yl]-propyl}-benzoic acid]	212
CC(C)(C)C[C@@H]1N(CC#Cc2ccc(C(=O)O)c(F)c2)[C@@H](CO)[C@H](c2cccc(Cl)c2F)[C@@]1(C#N)c1ccc(Cl)cc1F [Example 18, 4-{3-[(2S,3R,4S,5R)-4-(3-chloro-2-fluoro-phenyl)-3-(4-chloro-2-fluoro-phenyl)-3-cyano-2-(2,2-dimethyl-propyl)-5-hydroxymethyl-pyrrolidin-1-yl]-prop-1-ynyl}-2-fluoro-benzoic acid]	70.8
C#CCN1[C@@H](CC(C)(C)C)[C@](C#N)(c2ccc(Cl)cc2F)[C@@H](c2cccc(Cl)c2F)[C@@H]1CO [Example 14, (2S,3R,4S,5R)-4-(3-chloro-2-fluoro-phenyl)-3-(4-chloro-2-fluoro-phenyl)-2-(2,2-dimethyl-propyl)-5-hydroxymethyl-1-prop-2-ynyl-pyrrolidine-3-carbonitrile]	2360
CC(C)(C)C[C@@H]1N(Cc2ccc(OCCO)cc2)[C@@H](CO)[C@H](c2cccc(Cl)c2F)[C@@]1(C#N)c1ccc(Cl)cc1F [Example 9, (2S,3R,4S,5R)-4-(3-chloro-2-fluoro-phenyl)-3-(4-chloro-2-fluoro-phenyl)-2-(2,2-dimethyl-propyl)-1-[4-(2-hydroxy-ethoxy)-benzyl]-5-hydroxymethyl-pyrrolidine-3-carbonitrile]	2110
CC(C)(C)C[C@@H]1N[C@@H](CO)[C@H](c2cccc(Cl)c2F)[C@@]1(C#N)c1ccc(Cl)cc1F [Example 7, (2S,3R,4S,5R)-4-(3-chloro-2-fluoro-phenyl)-3-(4-chloro-2-fluoro-phenyl)-2-(2,2-dimethyl-propyl)-5-hydroxymethyl-pyrrolidine-3-carbonitrile]	182
CC(C)(C)C[C@@H]1N[C@@H](CO)[C@H](c2cccc(Cl)c2F)[C@@]1(C#N)c1ccc(Cl)cc1F (racemic) [Example 3, rac(2S,3R,4S,5R)-4-(3-chloro-2-fluoro-phenyl)-3-(4-chloro-2-fluoro-phenyl)-2-(2,2-dimethyl-propyl)-5-hydroxymethyl-pyrrolidine-3-carbonitrile]	971
